Measurements taken from PubChem BioAssay AID298 (DTP/NCI, 2004).
Where “and” joins values, the source holds several entries; their conditions need not be identical. Equal entries are not always repeated. Results filed as inconclusive are left out.

System: MX-1 breast xenograft, intrarenal, nude mice, tumor weight
Assay: NCI In Vivo Anticancer Drug Screen. Data for tumor model Human Mammary Carcinoma MX-1 Xenograft (intrarenal inoculation) in NU/NU BALB/C (nude) mice
Conditions: endpoint: mean tumor weight change, higher = larger tumour
In short: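 Transplantable tumors established in mice; animals dosed with compound or vehicle; survival or tumor size then recorded. Result reported as treated (T) divided by vehicle control (C).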

[1] = dose: 150.0 mg/kg/injection, schedule: Q04DX003 (ip), vehicle: suspension in saline
[2] = dose: 300.0 mg/kg/injection, schedule: Q04DX003 (ip), vehicle: suspension in saline
[3] = dose: 600.0 mg/kg/injection, schedule: Q04DX003 (ip), vehicle: suspension in saline
[4] = dose: 1200.0 mg/kg/injection, schedule: Q04DX003 (ip), vehicle: suspension in saline
[5] = dose: 100.0 mg/kg/injection, schedule: Q04DX003 (ip), vehicle: Klucel (hydroxypropylcellulose) (HPC)
[6] = dose: 200.0 mg/kg/injection, schedule: Q04DX003 (ip), vehicle: Klucel (hydroxypropylcellulose) (HPC)
[7] = dose: 75.0 mg/kg/injection, schedule: Q04DX003 (ip), vehicle: saline with Tween-80
[8] = dose: 150.0 mg/kg/injection, schedule: Q04DX003 (ip), vehicle: saline with Tween-80
[9] = dose: 300.0 mg/kg/injection, schedule: Q04DX003 (ip), vehicle: saline with Tween-80

N[C@@H](C[C@H]1CCC(=O)[C@@H]2O[C@H]12)C(=O)O
T/C (dose: 150.0 mg/kg/injection, schedule: Q04DX003 (ip), vehicle: saline): 94 % of control
T/C [1]: 100 % of control
T/C (dose: 300.0 mg/kg/injection, schedule: Q04DX003 (ip), vehicle: saline): 90 % of control
T/C [2]: 75 % of control
T/C (dose: 600.0 mg/kg/injection, schedule: Q04DX003 (ip), vehicle: saline): 104 % of control
T/C [3]: 82 % of control
T/C (dose: 1200.0 mg/kg/injection, schedule: Q04DX003 (ip), vehicle: saline): 47 % of control
T/C [4]: 62 % of control

NC(=O)CCC(N)C(=O)O (centres undefined)
T/C [1]: 91 % of control
T/C [2]: 102 % of control
T/C [3]: 76 % of control
T/C [4]: 87 % of control

N=C(N)c1nn(C2OC(CO)C(O)C2O)c2nc[nH]c(=O)c12 (centres undefined)
T/C (dose: 12.5 mg/kg/injection, schedule: Q04DX003 (ip), vehicle: Klucel + Tween-80): 92 % of control
T/C (dose: 25.0 mg/kg/injection, schedule: Q04DX003 (ip), vehicle: Klucel + Tween-80): 42 % of control
T/C (dose: 25.0 mg/kg/injection, schedule: Q04DX003 (ip), vehicle: distilled water + Tween-80 + alcohol): 95 % of control
T/C (dose: 50.0 mg/kg/injection, schedule: Q04DX003 (ip), vehicle: distilled water + Tween-80 + alcohol): 83 % of control
T/C (dose: 75.0 mg/kg/injection, schedule: Q04DX003 (ip), vehicle: Klucel + Tween-80): 36 % of control
T/C (dose: 100.0 mg/kg/injection, schedule: Q04DX003 (ip), vehicle: distilled water + Tween-80 + alcohol): 4 % of control
T/C (dose: 125.0 mg/kg/injection, schedule: Q04DX003 (ip), vehicle: Klucel + Tween-80): 9 % of control

CN(C)N=Nc1ccc(C(=O)O)cc1
T/C (dose: 100.0 mg/kg/injection, schedule: Q04DX003 (ip), vehicle: saline): 30 % of control
T/C (dose: 200.0 mg/kg/injection, schedule: Q04DX003 (ip), vehicle: saline): 2 % of control
T/C (dose: 400.0 mg/kg/injection, schedule: Q04DX003 (ip), vehicle: saline): -60 % of control

CN(C)c1ccc2c(Nc3ccc(NS(C)(=O)=O)cc3)c3ccc(N(C)C)cc3nc2c1
T/C [5]: 115 % of control
T/C [6]: 39 % of control

CCCC1(c2ccccc2)C(=O)NCNC1=O
T/C (dose: 150.0 mg/kg/injection, schedule: Q04DX003 (ip), vehicle: Klucel (hydroxypropylcellulose) (HPC)): 92 % of control
T/C (dose: 300.0 mg/kg/injection, schedule: Q04DX003 (ip), vehicle: Klucel (hydroxypropylcellulose) (HPC)): 95 % of control
T/C (dose: 600.0 mg/kg/injection, schedule: Q04DX003 (ip), vehicle: Klucel (hydroxypropylcellulose) (HPC)): 88 % of control
T/C (dose: 1200.0 mg/kg/injection, schedule: Q04DX003 (ip), vehicle: Klucel (hydroxypropylcellulose) (HPC)): 55 % of control

CC1Oc2cc3c(-c4c(O)cc(O)c5c(O)c6c(cc45)OC(C)C(C)C6=O)c(O)cc(O)c3c(O)c2C(=O)C1C (centres undefined)
T/C (dose: 9.0 mg/kg/injection, schedule: Q04DX003 (ip), vehicle: suspension in saline): 21 % of control
T/C (dose: 12.0 mg/kg/injection, schedule: Q04DX003 (ip), vehicle: suspension in saline): 15 % of control

O=C1c2ccccc2C(=O)c2c1cn1c2Cc2ccccc2C1
T/C (dose: 50.0 mg/kg/injection, schedule: Q04DX003 (ip), vehicle: Klucel (hydroxypropylcellulose) (HPC)): 72 % of control
T/C [5]: 37 % of control
T/C [6]: 26 % of control
T/C (dose: 400.0 mg/kg/injection, schedule: Q04DX003 (ip), vehicle: Klucel (hydroxypropylcellulose) (HPC)): 35 % of control

C1CCC2C[N-]CCC2C1.C1CCC2C[N-]CCC2C1.C1CCC2C[N-]CCC2C1.C1CCC2C[N-]CCC2C1.[Cl][Rh][Cl] (centres undefined)
T/C (dose: 72.0 mg/kg/injection, schedule: Q04DX003 (sc), vehicle: saline with Tween-80): 112 % of control
T/C (dose: 144.0 mg/kg/injection, schedule: Q04DX003 (sc), vehicle: saline with Tween-80): 124 % of control
T/C (dose: 576.0 mg/kg/injection, schedule: Q04DX003 (sc), vehicle: saline with Tween-80): 67 % of control

[NH-]C(CCC(N)=O)C(=O)O.[NH-]C(CCC(N)=O)C(=O)O.[Zn+2] (centres undefined)
T/C [7]: 97 % of control

Nc1ccc2ccc(N)cc2c1
T/C [8]: 75 % of control
T/C [9]: 65 % of control

CC(C)C(N)C(=O)Nc1nncs1 (centres undefined)
T/C (dose: 150.0 mg/kg/injection, schedule: Q04DX003 (sc), vehicle: saline): 73 % of control
T/C (dose: 300.0 mg/kg/injection, schedule: Q04DX003 (sc), vehicle: saline): 77 % of control
T/C (dose: 600.0 mg/kg/injection, schedule: Q04DX003 (sc), vehicle: saline): 86 % of control
T/C (dose: 1200.0 mg/kg/injection, schedule: Q04DX003 (sc), vehicle: saline): 46 % of control

NC(=S)N/N=C/c1ncccc1O
T/C [1]: 86 % of control
T/C [2]: 93 % of control

Oc1ccc(/C=N/N=C/c2ccc(O)c(O)c2)cc1O
T/C [7]: 68 % of control
T/C [8]: 46 % of control
T/C [9]: 78 % of control
T/C (dose: 1200.0 mg/kg/injection, schedule: Q04DX003 (ip), vehicle: saline with Tween-80): 82 % of control

COc1cc2c(c(OC)c1OC)-c1ccc(OC)c(=O)cc1[C@@H](NC(C)=O)CC2
T/C (dose: 0.5 mg/kg/injection, schedule: Q04DX003 (ip), vehicle: saline): 41 % of control and 48 % of control
T/C (dose: 1.0 mg/kg/injection, schedule: Q04DX003 (ip), vehicle: saline): 17 % of control and 20 % of control

CC[C@@]1(O)C(=O)OCc2c1cc1n(c2=O)Cc2cc3ccccc3nc2-1
T/C (dose: 10.0 mg/kg/injection, schedule: Q04DX003 (sc), vehicle: saline with Tween-80): -84 % of control and -100 % of control
T/C (dose: 20.0 mg/kg/injection, schedule: Q04DX003 (sc), vehicle: saline with Tween-80): -100 % of control and -95 % of control
T/C (dose: 40.0 mg/kg/injection, schedule: Q04DX003 (sc), vehicle: saline with Tween-80): -100 % of control

COC(=O)Nc1cn2cc(C(=O)c3cccs3)ccc2n1
T/C (dose: 300.0 mg/kg/injection, schedule: Q04DX003 (sc), vehicle: Klucel (hydroxypropylcellulose) (HPC)): 70 % of control
T/C (dose: 600.0 mg/kg/injection, schedule: Q04DX003 (sc), vehicle: Klucel (hydroxypropylcellulose) (HPC)): 74 % of control
T/C (dose: 1200.0 mg/kg/injection, schedule: Q04DX003 (sc), vehicle: Klucel (hydroxypropylcellulose) (HPC)): 102 % of control
T/C (dose: 2400.0 mg/kg/injection, schedule: Q04DX003 (sc), vehicle: Klucel (hydroxypropylcellulose) (HPC)): 96 % of control

COC(=O)[C@@]12OC[C@]34[C@H]([C@@H](O)[C@@H]1O)[C@@]1(C)CC(=O)C(OC(=O)CC(=O)OC5=C(C)[C@@H]6C[C@H]7OC(=O)[C@H](OC(=O)/C=C(\C)C(C)C)[C@H]8[C@]9(C(=O)OC)OC[C@]78[C@H]([C@@H](O)[C@@H]9O)[C@@]6(C)CC5=O)=C(C)[C@@H]1C[C@H]3OC(=O)[C@H](OC(=O)/C=C(\C)C(C)C)[C@@H]24
T/C (dose: 3.12 mg/kg/injection, schedule: Q04DX003 (ip), vehicle: saline + Tween-80 + alcohol): 86 % of control
T/C (dose: 6.25 mg/kg/injection, schedule: Q04DX003 (ip), vehicle: saline + Tween-80 + alcohol): 63 % of control

NCCCN=c1ccc2c3c1c(O)c1c(O)ccc(=O)c1c3[nH]n2CCNCCO
T/C (dose: 9.35 mg/kg/injection, schedule: Q04DX003 (ip), vehicle: water): 19 % of control
T/C (dose: 9.38 mg/kg/injection, schedule: Q04DX003 (ip), vehicle: water): 11 % of control
T/C (dose: 18.75 mg/kg/injection, schedule: Q04DX003 (ip), vehicle: water): -33 % of control and -19 % of control and -16 % of control
T/C (dose: 37.5 mg/kg/injection, schedule: Q04DX003 (ip), vehicle: water): -87 % of control and -83 % of control and -100 % of control

CNC(=O)Oc1ccc(S(=O)(=O)c2ccc(OC(=O)NC)cc2)cc1
T/C [8]: 98 % of control
T/C [9]: 89 % of control
T/C (dose: 600.0 mg/kg/injection, schedule: Q04DX003 (ip), vehicle: saline with Tween-80): 33 % of control

COc1cc2cc3c(c(O)c2c(O)c1/C=C/C(C)C)C(=O)CC(C)(OC(C)=O)C3 (centres undefined)
T/C (dose: 5.0 mg/kg/injection, schedule: Q04DX003 (ip), vehicle: Klucel (hydroxypropylcellulose) (HPC)): 85 % of control
T/C (dose: 10.0 mg/kg/injection, schedule: Q04DX003 (ip), vehicle: Klucel (hydroxypropylcellulose) (HPC)): 66 % of control
T/C (dose: 20.0 mg/kg/injection, schedule: Q04DX003 (ip), vehicle: Klucel (hydroxypropylcellulose) (HPC)): 63 % of control

NC1=NC(=O)N2CC12 (centres undefined)
T/C (dose: 50.0 mg/kg/injection, schedule: Q04DX003 (sc), vehicle: saline): 106 % of control
T/C (dose: 100.0 mg/kg/injection, schedule: Q04DX003 (sc), vehicle: saline): 116 % of control
T/C (dose: 200.0 mg/kg/injection, schedule: Q04DX003 (sc), vehicle: saline): 86 % of control
